Data published in patent US10125121B2, “FYN kinase inhibitors” (ROTTAPHARM BIOTECH S.R.L., priority 2015, dated 2018).

Tests used:
[1] = system: NF-kB activation in JB6 CI 41-5a (P+) cells; assay: Gene reporter (GR) assay, NF-kB luciferase after TNFα stimulation; format: cell-based, murine; settings: Mus musculus; 1 h pre-treatment, 2 ng/ml TNFα for 4 h; read-out: IC50(nM) GR Inhibition
[2] = system: CFA induced hyperalgesia; assay: CFA-induced inflammatory pain in rats (Randall-Selitto paw withdrawal threshold); format: in vivo; settings: 3; rat, 24 h after administration
Experimental: Male Wistar rats were injected into the right hind footpad with 300 μg of Mycobacterium tuberculosis in 100 μL of liquid paraffin (Complete Freund's Adjuvant; CFA). Seventy-two hours later, compounds 2 and 26 were administered subcutaneously and 24 h after the administration, the response to noxious mechanical stimulation was assessed by measuring paw withdrawal threshold (PWT) with an analgesimeter of the Randall-Selitto type. Animals were gently restrained, and steadily increasing pressure was applied to the dorsal surface of both the ipsi-lateral (CFA-treated) and the contra-lateral paw via a dome-shaped plastic tip.
100% protection means that the animal treated with the compound and CFA can tolerate the same stimulus (weight) as the control animal which has not received CFA treatment.

[3] = Pharmacokinetics in rats; format: in vivo, rat; settings: rat, in vivo, po, 1 mg/kg orally
[4] = target: SRC (Homo sapiens, UniProt P12931); assay: Kinase selectivity panel by Cerep
Chain of SRC (P12931 whole entry): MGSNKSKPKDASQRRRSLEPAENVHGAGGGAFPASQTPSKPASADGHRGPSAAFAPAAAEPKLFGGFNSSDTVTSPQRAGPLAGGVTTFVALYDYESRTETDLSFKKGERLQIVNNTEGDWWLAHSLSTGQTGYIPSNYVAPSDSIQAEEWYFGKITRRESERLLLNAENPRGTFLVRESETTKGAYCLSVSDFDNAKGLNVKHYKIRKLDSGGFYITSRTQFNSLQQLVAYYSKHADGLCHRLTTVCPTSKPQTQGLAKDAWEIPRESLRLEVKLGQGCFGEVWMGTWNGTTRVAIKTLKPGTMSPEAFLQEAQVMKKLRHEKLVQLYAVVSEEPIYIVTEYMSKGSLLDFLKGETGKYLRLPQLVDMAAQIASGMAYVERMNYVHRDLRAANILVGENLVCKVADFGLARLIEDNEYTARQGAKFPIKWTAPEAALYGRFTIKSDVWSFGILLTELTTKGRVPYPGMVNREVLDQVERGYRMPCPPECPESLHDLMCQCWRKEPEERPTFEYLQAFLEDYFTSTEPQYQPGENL

[5] = target: LYN (Homo sapiens, UniProt P07948); assay: Kinase selectivity panel by Cerep
Chain of LYN (P07948 whole entry): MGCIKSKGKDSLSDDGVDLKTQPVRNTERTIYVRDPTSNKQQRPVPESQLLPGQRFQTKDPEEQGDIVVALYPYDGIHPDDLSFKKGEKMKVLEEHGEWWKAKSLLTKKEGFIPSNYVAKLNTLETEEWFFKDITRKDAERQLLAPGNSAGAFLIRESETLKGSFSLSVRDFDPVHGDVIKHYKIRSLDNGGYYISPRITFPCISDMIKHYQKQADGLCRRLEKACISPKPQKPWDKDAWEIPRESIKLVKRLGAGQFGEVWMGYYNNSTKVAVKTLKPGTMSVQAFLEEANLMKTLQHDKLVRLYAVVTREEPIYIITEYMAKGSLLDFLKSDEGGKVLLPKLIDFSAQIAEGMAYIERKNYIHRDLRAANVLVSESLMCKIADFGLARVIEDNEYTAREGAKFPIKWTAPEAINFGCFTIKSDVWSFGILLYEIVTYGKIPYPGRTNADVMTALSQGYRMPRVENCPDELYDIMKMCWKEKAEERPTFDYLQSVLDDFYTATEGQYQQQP

[6] = target: BLK (Homo sapiens, UniProt P51451); assay: Kinase selectivity panel by Cerep
Chain of BLK (P51451 whole entry): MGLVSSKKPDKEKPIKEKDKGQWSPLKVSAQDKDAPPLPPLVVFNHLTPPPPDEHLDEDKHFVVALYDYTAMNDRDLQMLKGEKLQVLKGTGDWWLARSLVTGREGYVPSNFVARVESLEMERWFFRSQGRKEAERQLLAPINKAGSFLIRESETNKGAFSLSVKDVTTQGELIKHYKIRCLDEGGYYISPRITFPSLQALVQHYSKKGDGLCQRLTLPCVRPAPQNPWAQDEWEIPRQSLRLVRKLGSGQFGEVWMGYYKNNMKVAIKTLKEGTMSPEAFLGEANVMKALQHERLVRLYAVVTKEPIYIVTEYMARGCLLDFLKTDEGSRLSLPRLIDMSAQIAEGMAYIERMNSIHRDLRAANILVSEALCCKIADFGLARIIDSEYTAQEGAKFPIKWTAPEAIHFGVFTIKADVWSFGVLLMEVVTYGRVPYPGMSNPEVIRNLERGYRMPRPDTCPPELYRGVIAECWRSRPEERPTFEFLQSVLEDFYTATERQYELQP

[7] = target: LCK (Homo sapiens, UniProt P06239); assay: Kinase selectivity panel by Cerep
Chain of LCK (P06239 whole entry): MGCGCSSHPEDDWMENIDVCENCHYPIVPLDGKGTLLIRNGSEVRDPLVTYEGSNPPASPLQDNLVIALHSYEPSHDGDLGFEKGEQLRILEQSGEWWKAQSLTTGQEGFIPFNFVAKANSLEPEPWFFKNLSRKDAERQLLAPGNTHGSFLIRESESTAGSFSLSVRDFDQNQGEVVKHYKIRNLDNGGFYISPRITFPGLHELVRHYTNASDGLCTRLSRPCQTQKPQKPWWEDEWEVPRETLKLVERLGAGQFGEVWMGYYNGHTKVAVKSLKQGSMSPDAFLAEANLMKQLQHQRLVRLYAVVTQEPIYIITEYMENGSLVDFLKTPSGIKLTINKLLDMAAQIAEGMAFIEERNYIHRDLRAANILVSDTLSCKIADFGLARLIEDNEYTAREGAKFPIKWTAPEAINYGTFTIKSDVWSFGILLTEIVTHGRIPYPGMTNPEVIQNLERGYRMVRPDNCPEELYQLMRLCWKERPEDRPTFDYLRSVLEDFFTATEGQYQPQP

[8] = target: RET (Homo sapiens, UniProt P07949); assay: Kinase selectivity panel by Cerep; settings: read-out: inhibition of RET
Chain of RET (P07949 29-1114): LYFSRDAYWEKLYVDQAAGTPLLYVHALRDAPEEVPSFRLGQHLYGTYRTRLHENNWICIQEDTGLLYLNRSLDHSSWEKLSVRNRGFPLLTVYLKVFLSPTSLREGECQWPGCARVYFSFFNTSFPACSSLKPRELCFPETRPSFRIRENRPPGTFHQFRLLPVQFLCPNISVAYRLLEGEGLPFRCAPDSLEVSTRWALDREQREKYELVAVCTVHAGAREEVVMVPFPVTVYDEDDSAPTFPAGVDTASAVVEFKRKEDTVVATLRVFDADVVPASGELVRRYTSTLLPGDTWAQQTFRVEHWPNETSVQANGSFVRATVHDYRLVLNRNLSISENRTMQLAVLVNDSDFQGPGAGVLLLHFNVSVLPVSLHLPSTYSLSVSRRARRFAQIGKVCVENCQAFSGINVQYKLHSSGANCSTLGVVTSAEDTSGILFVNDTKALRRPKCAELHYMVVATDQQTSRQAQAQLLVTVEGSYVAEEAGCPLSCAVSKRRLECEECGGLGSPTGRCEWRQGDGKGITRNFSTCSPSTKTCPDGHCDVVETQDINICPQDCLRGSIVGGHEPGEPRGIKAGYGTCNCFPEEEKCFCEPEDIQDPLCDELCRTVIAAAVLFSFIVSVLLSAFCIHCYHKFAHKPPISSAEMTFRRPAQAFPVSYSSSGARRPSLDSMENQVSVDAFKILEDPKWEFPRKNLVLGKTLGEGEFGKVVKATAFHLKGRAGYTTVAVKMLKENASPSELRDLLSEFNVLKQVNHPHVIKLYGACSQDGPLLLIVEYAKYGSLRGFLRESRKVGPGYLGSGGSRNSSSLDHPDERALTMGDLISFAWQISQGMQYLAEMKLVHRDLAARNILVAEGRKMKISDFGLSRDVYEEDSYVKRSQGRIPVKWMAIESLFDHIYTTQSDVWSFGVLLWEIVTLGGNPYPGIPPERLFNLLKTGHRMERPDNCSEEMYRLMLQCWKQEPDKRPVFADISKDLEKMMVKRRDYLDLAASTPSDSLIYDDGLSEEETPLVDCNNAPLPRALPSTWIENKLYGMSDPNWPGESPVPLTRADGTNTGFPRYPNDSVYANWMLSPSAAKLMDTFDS

[9] = target: CDK2 (Homo sapiens, UniProt P24941); assay: Kinase selectivity panel by Cerep; settings: read-out: inhibition of CDK2
[10] = system: other kinases examined of the SRC family; assay: Kinase selectivity panel by Cerep

O=C(Nc1ccc(CN2CCN(c3nccc(Nc4cc(C5CC5)[nH]n4)n3)CC2)cc1)c1ccccc1C(F)(F)F [Compound 2, N-(4-((4-(4-((5-cyclopropyl-1H-pyrazol-3-yl)amino)pyrimidin-2-yl)piperazin-1-yl)methyl)phenyl)-2-(trifluoromethyl)-benzamide]
IC50 [1]: 190 nM | % protective effect vs. CFA induced hyperalgesia [2]: 100% | bioavailability [3]: 51% | AUC(0-t) ([3]; read-out: AUC (0-24 h)): 877 ng·h/mL | IC50 [4]: 730 nM | IC50 [5]: 1400 nM | IC50 [6]: 480 nM | IC50 [7]: 450 nM | inhibition at 0.1 µM [8]: > 50% | inhibition at 0.1 µM [9]: > 50% | average potency ratio (other SRC family kinases vs FYN) [10]: about 100 | IC50 ([10]; read-out: IC50, all other kinases examined of the SRC family): > 100 nM
